Reference: patent US20240336574A1 (LATIGO BIOTHERAPEUTICS, INC., priority 2021, published 2024)
Read-outs that look alike come from different tables or passages of the source.

Biological target: T1, recombinant human NaV1.8 stably transfected HEK cells (Homo sapiens, UniProt Q9Y5Y9)
T1 construct: expressed in transfected cells; host or cells: HEK cells, stably transfected
Assay: Compound profiling on NaV1.8, human NaV1.8 cell line, SyncroPatch384PE automated patch clamp assay (Example 115, third set of compounds, Table 27)
Assay type: cell-based
Settings: human NaV1.8 HEK cells, Table 27 (third set of compounds)
Procedure: Compound Profiling on NaV1.8 Human NaV1.8 Cell Line SyncroPatch384PE Assay
Compounds were tested on recombinant human NaV1.8 stably transfected HEK cells using the SyncroPatch384PE system, an automated patch clamp device. Cells were cultured at 37° C./5% CO2 in DMEM medium supplemented with GlutaMAX I, NEAA 1%, FBS 10% and seeded in T175 flasks. Cells were cultured at 30° C. one day prior to recording sodium currents. On the day of the recordings, cells were detached with 0.05% Trypsin-EDTA, resuspended in serum free DMEM medium and placed into the SyncroPatch384PE 6° C. pre-cooled cell hotel and shaken at 200 rpm. Intracellular solution (IC) contained, in mM: 10, CsCl; 110, CsF; 20, EGTA; 10, HEPES. Extracellular solution (EC) contained, in mM: 140, NaCl; 4, KCl; 5, Glucose; 10, HEPES; 2, CaCl2; 1, MgCl2. Washing solution contained, in mM: 40, NMDG; 100, NaCl; 4, KCl; 10, Glucose; 10, HEPES; 5, CaCl2; 1, MgCl2.
Compounds were tested in quadruplicates in 0.1% DMSO and 0.030% Pluronic Acid. Compounds were diluted 1:3.33 in EC solution to create a 10-point concentration response curve, spanning a final concentration range from 10-0.0002 μM in the assay plate. Compounds with low nM potency were retested using a lower concentration range (1-0.00002 μM). Each plate contained tetracaine and another tool compound as positive controls. Up to 7 compounds were tested on one plate. 150 μM tetracaine and 0.1% DMSO were used as high and low controls, respectively.
Whole cell patch clamp recordings were conducted according to Nanion's standard procedure for SyncroPatch384PE®. Cells were held at a holding potential of −120 mV. A depolarization step to 10 mV for 30 ms was applied (P1 measurement), followed by a hyperpolarization step to −100 mV for 100 ms. An inactivation step at −40 mV for 10 sec was applied before stepping to −100 mV for 20 ms, followed by a step to 10 mV for 30 ms (P2 measurement) and then back to −100 mV for 30 ms. Sweep interval was 15 sec with a sampling rate of 10 kHz. Following establishment of the whole-cell configuration in EC, two washing steps with reference buffer were performed to stabilize the baseline. Compounds were then applied by the SynchroPatch into each well and the current was recorded for five minutes in EC, followed by application of tetracaine to achieve full block at the end of the experiment. The potency of the compounds was assessed on two read-outs, resting state block (P1 measurement) or inactivated state block (P2 measurement) to obtain IC50 values. Values were normalized to high (tetracaine) and low (DMSO) controls.

[1] = inactivated state block (P2 measurement), read-out: P2 IC50
[2] = resting state block (P1 measurement), read-out: P1 IC50

T1 sequence (Q9Y5Y9 whole entry): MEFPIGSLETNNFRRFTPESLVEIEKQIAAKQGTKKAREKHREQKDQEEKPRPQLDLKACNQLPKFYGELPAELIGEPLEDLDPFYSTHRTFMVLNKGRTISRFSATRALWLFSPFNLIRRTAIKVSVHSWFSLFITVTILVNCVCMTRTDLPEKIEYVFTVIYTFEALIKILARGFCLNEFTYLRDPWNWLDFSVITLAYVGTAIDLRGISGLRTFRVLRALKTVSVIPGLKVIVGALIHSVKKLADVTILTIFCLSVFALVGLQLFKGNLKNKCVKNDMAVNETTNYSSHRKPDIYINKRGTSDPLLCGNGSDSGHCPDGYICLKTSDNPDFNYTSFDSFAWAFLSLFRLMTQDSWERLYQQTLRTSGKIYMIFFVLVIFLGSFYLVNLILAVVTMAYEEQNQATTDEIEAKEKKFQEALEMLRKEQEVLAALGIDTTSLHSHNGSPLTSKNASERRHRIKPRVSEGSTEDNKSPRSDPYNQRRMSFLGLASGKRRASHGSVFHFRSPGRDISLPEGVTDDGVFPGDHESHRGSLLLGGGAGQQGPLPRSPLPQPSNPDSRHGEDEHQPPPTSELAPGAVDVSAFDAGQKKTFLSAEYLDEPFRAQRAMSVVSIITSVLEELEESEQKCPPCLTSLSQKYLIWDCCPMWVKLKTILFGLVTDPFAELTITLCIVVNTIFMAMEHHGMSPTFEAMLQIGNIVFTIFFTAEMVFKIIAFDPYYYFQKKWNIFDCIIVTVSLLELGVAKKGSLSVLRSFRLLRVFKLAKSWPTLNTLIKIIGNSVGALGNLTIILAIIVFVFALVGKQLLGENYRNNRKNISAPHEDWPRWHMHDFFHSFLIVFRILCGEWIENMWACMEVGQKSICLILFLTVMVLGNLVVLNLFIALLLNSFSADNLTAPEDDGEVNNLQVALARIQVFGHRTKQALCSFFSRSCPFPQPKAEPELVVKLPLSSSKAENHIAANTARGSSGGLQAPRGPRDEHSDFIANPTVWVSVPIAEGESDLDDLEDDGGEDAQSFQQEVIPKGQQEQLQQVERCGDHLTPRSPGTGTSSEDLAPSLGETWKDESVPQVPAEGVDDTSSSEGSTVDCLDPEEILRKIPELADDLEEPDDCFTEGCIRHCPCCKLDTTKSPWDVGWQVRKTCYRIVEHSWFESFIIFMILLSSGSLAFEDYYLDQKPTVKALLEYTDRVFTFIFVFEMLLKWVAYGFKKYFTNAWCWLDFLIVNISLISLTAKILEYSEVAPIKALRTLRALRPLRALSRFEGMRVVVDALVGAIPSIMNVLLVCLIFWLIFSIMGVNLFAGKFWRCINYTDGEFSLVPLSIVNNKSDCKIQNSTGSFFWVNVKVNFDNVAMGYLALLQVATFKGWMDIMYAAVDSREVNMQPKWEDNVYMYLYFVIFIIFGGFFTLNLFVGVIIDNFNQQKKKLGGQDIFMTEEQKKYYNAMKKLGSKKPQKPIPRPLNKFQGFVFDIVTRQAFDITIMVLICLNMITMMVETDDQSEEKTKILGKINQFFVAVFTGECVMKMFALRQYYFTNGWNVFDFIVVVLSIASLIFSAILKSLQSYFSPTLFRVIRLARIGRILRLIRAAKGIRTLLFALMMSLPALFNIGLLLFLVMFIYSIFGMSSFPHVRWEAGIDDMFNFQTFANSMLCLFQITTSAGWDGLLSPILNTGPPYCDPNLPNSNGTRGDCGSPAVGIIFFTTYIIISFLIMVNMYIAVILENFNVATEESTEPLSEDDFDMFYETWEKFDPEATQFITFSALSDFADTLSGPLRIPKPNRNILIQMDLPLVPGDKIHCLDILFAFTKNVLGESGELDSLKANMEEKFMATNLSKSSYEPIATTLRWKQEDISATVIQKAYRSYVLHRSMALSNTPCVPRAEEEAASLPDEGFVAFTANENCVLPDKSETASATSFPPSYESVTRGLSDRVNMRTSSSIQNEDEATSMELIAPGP

Row | IC50 [1] | IC50 [2] | SMILES
1 | 201 to 500 nM | > 5000 nM | Cc1cc(F)ccc1Oc1nnc(C(F)(F)F)cc1C(=O)Nc1cccc([S@@](C)(=N)=O)c1 [Compound 103, (S)-3-(4-fluoro-2-methylphenoxy)-N-(3-(S-methylsulfonimidoyl)phenyl)-6-(trifluoromethyl)pyridazine-4-carboxamide]
2 | 501 to 1000 nM | 201 to 500 nM | CS(=N)(=O)c1cccc(NC(=O)c2cc(C(F)(F)F)nnc2Oc2ccc(F)cc2Cl)c1 (centres unmarked) [Compound 96, 3-(2-Chloro-4-fluorophenoxy)-N-(3-(S-methylsulfonimidoyl)phenyl)-6-(trifluoromethyl)pyridazine-4-carboxamide]
3 | ≤ 200 nM | ≤ 200 nM | Cc1cc(OC(F)(F)F)ccc1Oc1nnc(C(F)(F)F)cc1C(=O)Nc1cccc(S(C)(=O)=O)c1 [Compound 35]
4 | 201 to 500 nM | 501 to 1000 nM | COc1ccc(F)cc1Oc1nnc(C(F)(F)F)cc1C(=O)Nc1cccc(S(N)(=O)=O)c1 [Compound 122, 3-(5-Fluoro-2-methoxyphenoxy)-N-(3-sulfamoylphenyl)-6-(trifluoromethyl)pyridazine-4-carboxamide]
5 | 1000 to 5000 nM | 1000 to 5000 nM | Cc1cc(F)ccc1Oc1nnc(C(F)(F)F)cc1C(=O)Nc1cccc(NS(C)(=O)=O)c1 [Compound 8]
6 | ≤ 200 nM | ≤ 200 nM | NS(=O)(=O)c1cccc(NC(=O)c2cc(C(F)(F)F)nnc2Oc2cc(F)ccc2Cl)c1 [Compound 118, 3-(2-Chloro-5-fluorophenoxy)-N-(3-sulfamoylphenyl)-6-(trifluoromethyl)pyridazine-4-carboxamide]
7 | 501 to 1000 nM | 501 to 1000 nM | Cc1ccc(F)cc1Oc1nnc(C(F)(F)F)cc1C(=O)Nc1cccc(S(N)(=O)=O)c1 [Compound 119, 3-(5-Fluoro-2-methylphenoxy)-N-(3-sulfamoylphenyl)-6-(trifluoromethyl)pyridazine-4-carboxamide]
8 | 1000 to 5000 nM | 501 to 1000 nM | Cc1cc(F)ccc1Oc1nnc(C(F)(F)F)cc1C(=O)Nc1ccc(S(N)(=O)=O)cc1 [Compound 48]
9 | ≤ 200 nM | ≤ 200 nM | COc1cc(F)ccc1Oc1nnc(C(F)(F)F)cc1C(=O)Nc1cccc(S(=O)(=O)C2CC2)c1 [Compound 25]

More lines, now with the values behind:

Row | SMILES | IC50 [1] | IC50 [2]
10 | COc1cc(F)ccc1Oc1nnc(C(F)(F)F)cc1C(=O)Nc1cc(C#N)cnn1 [Compound 56] | > 5000 nM | > 5000 nM
11 | Cc1cc(F)ccc1Oc1nnc(C(F)(F)F)cc1C(=O)Nc1ccc(S(C)(=N)=O)cc1 (centres unmarked) [Compound 98, 3-(4-Fluoro-2-methylphenoxy)-N-(4-(S-methylsulfonimidoyl)phenyl)-6-(trifluoromethyl)pyridazine-4-carboxamide] | > 5000 nM | > 5000 nM
12 | Cc1cc(C#N)ccc1Oc1nnc(C(F)(F)F)cc1C(=O)Nc1cccc(C(N)=O)c1 [Compound 79] | 201 to 500 nM | 201 to 500 nM
13 | COc1cc(F)ccc1Oc1nnc(C(F)(F)F)cc1C(=O)Nc1cccc(-c2nncn2C)c1 [Compound 38] | 1000 to 5000 nM | 1000 to 5000 nM
14 | O=C(Nc1ccnnc1)c1cc(C(F)(F)F)nnc1Oc1ccc(F)cc1Cl [Compound 63] | 501 to 1000 nM | 201 to 500 nM
15 | CCOc1cc(F)ccc1Oc1nnc(C)cc1C(=O)Nc1cccc(S(C)(=N)=O)c1 (centres unmarked) [Compound 95, 3-(2-Ethoxy-4-fluorophenoxy)-6-methyl-N-(3-(S-methylsulfonimidoyl)phenyl)pyridazine-4-carboxamide] | > 5000 nM | > 5000 nM
16 | CS(=O)(=O)c1cccc(NC(=O)c2cc(C(F)(F)F)nnc2Oc2ccc(F)cc2Cl)n1 [Compound 68] | > 5000 nM | > 5000 nM
17 | CS(=O)(=O)c1cncc(NC(=O)c2cc(C(F)(F)F)nnc2Oc2ccc(F)cc2Cl)c1 [Compound 66] | 1000 to 5000 nM | > 5000 nM
18 | COc1cc(NC(=O)c2cc(C(F)(F)F)nnc2Oc2ccc(F)cc2C)c(C)cn1 [Compound 29] | > 5000 nM | > 5000 nM
19 | Cc1cc(F)ccc1Oc1nnc(C(F)(F)F)cc1C(=O)Nc1cccc(S(C)(=O)=O)n1 [Compound 4] | > 5000 nM | > 5000 nM
